Results from PMC10004634 (PLOS ONE, 2023).
Read-outs that look alike come from different tables or passages of the source.

Assays:
Assay in all cases: biochemical
Parameters in all cases: KINOMEscan scanMAX competition binding, DNA-tagged kinases, qPCR read-out, percent control at 300 nM
BIKE = biological target: T1, BIKE (Homo sapiens, UniProt Q9NSY1)
T1 construct: gene BMP2K

CSNK1E = CSNK1E (Homo sapiens, UniProt P49674)
[1] = biological target: EGFR(L747-S752del, P753S) (Homo sapiens, UniProt P00533, DEL747-752/P753S)
ERK3 = biological target: T2, ERK3 (Homo sapiens, UniProt Q16659)
T2 construct: gene MAPK6

INSR = INSR (Homo sapiens, UniProt P06213)
MEK1 = biological target: T3, MEK1 (Homo sapiens, UniProt Q02750)
T3 construct: gene MAP2K1

NEK3 = biological target: T4, NEK3 (Homo sapiens, UniProt P51956)
T4 sequence (P51956 1-506): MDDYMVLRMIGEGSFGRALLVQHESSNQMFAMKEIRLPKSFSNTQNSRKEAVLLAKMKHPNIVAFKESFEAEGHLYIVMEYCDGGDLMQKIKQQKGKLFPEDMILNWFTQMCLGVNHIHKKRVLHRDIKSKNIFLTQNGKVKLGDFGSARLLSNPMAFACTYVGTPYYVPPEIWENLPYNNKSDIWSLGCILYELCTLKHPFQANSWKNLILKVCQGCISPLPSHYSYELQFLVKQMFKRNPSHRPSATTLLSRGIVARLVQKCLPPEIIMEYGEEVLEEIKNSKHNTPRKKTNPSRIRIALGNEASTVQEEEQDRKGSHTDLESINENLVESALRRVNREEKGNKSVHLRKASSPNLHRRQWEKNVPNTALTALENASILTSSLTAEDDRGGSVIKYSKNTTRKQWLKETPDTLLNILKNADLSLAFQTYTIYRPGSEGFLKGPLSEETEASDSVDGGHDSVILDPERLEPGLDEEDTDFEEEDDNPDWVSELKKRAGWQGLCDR

PIP5K2C = biological target: T5, PIP5K2C (Homo sapiens, UniProt Q8TBX8)
T5 construct: gene PIP4K2C
T5 sequence (Q8TBX8 1-421): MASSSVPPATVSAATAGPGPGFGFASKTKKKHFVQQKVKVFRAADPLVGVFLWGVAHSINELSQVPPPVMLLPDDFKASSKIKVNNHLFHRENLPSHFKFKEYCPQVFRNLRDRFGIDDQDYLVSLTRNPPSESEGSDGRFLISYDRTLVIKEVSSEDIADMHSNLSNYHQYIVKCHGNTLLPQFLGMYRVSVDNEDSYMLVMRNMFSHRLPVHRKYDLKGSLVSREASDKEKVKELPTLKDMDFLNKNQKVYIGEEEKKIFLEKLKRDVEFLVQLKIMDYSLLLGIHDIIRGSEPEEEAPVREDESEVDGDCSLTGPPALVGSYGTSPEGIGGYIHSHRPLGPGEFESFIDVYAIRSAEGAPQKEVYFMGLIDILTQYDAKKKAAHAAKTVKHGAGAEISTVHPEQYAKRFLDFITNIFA

[2] = biological target: T6, RSK1(Kin.Dom.1-N-terminal) (Homo sapiens, UniProt Q15418)
T6 construct: gene RPS6KA1; Kin.Dom.1-N-terminal

SRMS = SRMS (Homo sapiens, UniProt Q9H3Y6)
TNIK = TNIK (Homo sapiens, UniProt Q9UKE5)
CDKL2 = biological target: T7, CDKL2 (Homo sapiens, UniProt Q92772)
T7 sequence (Q92772 1-493): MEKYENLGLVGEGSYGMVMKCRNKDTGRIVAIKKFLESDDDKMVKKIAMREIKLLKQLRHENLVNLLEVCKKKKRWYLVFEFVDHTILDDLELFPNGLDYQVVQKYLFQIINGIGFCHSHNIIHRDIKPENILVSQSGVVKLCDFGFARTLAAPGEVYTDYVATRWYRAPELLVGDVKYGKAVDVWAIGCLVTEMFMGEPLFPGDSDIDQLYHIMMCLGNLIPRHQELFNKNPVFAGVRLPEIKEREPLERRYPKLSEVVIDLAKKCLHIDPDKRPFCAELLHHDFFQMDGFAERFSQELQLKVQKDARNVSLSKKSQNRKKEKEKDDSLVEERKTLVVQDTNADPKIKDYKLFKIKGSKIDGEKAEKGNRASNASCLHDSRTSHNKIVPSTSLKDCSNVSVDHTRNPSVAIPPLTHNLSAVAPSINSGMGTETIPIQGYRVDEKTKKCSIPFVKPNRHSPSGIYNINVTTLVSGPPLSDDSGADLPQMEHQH

PIM2 = PIM2 (Homo sapiens, UniProt Q9P1W9)
[3] = read-out: Percent control / Acalabrutinib
[4] = read-out: Percent control / Ibrutinib
[5] = read-out: Percent control / Tirabrutinib
[6] = read-out: Percent control / Zanubrutinib

T1 sequence (Q9NSY1 whole entry): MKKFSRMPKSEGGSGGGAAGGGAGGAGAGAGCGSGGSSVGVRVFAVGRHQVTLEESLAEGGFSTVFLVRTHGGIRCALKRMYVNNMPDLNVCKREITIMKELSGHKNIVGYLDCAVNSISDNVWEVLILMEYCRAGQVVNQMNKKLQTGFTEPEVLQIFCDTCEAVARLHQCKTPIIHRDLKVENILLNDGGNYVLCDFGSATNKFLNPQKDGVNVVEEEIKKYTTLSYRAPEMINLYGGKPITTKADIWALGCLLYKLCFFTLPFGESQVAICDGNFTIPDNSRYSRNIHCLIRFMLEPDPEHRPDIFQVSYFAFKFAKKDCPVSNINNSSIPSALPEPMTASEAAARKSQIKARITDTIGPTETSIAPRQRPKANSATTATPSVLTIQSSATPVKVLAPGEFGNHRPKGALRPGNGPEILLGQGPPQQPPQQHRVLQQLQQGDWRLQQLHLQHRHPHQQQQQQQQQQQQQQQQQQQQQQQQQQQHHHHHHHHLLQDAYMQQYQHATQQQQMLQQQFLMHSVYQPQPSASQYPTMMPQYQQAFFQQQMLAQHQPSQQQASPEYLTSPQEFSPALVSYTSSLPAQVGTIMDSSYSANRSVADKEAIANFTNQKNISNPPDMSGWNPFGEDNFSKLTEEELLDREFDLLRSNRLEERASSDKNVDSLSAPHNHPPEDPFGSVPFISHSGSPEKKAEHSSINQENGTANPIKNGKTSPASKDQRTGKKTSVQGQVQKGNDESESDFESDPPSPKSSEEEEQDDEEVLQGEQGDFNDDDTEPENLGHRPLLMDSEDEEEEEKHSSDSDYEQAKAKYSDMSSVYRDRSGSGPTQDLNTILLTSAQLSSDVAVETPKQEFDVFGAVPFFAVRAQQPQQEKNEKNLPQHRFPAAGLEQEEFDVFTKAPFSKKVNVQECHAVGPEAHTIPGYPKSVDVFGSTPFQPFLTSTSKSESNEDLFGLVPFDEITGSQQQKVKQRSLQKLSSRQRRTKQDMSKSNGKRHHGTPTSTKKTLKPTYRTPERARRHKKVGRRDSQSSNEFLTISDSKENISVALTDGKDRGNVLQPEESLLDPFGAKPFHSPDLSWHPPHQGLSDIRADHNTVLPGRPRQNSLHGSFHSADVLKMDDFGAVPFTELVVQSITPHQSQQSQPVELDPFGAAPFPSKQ
Sequence of INSR (P06213 whole entry): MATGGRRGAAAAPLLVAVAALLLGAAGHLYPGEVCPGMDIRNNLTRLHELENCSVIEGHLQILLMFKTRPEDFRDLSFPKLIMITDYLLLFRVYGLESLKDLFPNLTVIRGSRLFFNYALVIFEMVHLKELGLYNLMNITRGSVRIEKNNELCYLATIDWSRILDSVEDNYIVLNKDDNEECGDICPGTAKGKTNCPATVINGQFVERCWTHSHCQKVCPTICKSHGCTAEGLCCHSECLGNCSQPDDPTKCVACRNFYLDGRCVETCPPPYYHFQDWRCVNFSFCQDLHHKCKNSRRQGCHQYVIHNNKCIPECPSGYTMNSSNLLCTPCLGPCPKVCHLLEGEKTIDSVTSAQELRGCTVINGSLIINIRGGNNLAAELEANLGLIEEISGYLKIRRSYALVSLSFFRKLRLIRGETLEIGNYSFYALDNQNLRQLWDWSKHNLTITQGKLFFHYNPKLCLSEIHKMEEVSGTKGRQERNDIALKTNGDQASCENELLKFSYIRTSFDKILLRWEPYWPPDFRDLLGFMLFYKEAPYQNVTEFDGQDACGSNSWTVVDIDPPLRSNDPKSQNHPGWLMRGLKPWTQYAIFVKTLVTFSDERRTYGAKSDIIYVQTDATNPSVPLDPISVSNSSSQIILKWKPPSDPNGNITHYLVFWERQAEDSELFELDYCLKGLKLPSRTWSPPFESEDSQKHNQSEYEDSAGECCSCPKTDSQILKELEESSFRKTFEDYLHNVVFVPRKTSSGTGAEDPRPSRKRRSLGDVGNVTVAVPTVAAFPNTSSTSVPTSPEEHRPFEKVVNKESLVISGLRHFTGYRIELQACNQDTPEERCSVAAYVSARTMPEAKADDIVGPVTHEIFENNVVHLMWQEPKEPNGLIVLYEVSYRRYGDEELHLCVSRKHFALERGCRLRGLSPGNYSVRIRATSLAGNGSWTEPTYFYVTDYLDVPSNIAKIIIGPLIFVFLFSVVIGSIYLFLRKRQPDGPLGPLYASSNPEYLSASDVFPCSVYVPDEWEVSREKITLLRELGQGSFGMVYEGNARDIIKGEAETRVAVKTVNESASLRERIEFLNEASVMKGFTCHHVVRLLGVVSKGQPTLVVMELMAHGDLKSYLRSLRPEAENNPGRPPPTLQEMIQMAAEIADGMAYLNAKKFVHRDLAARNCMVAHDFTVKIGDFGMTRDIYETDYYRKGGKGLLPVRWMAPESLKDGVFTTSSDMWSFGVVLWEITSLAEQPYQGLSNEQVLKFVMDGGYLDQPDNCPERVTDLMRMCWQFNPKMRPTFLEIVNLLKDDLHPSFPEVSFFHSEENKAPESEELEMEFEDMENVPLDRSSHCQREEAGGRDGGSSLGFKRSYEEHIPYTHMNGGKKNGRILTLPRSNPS
T3 sequence (Q02750 whole entry): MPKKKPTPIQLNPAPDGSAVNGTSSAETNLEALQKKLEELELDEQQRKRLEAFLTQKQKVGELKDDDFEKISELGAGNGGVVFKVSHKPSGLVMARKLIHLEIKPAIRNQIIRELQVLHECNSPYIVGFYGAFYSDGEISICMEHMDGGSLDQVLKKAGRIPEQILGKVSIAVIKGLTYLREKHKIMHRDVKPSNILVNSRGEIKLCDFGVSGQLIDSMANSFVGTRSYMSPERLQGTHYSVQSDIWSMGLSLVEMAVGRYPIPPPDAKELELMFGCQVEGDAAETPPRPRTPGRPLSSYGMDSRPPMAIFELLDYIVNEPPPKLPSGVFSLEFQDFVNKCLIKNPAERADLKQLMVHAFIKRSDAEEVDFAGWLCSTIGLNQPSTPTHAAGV
Sequence of TNIK (Q9UKE5 whole entry): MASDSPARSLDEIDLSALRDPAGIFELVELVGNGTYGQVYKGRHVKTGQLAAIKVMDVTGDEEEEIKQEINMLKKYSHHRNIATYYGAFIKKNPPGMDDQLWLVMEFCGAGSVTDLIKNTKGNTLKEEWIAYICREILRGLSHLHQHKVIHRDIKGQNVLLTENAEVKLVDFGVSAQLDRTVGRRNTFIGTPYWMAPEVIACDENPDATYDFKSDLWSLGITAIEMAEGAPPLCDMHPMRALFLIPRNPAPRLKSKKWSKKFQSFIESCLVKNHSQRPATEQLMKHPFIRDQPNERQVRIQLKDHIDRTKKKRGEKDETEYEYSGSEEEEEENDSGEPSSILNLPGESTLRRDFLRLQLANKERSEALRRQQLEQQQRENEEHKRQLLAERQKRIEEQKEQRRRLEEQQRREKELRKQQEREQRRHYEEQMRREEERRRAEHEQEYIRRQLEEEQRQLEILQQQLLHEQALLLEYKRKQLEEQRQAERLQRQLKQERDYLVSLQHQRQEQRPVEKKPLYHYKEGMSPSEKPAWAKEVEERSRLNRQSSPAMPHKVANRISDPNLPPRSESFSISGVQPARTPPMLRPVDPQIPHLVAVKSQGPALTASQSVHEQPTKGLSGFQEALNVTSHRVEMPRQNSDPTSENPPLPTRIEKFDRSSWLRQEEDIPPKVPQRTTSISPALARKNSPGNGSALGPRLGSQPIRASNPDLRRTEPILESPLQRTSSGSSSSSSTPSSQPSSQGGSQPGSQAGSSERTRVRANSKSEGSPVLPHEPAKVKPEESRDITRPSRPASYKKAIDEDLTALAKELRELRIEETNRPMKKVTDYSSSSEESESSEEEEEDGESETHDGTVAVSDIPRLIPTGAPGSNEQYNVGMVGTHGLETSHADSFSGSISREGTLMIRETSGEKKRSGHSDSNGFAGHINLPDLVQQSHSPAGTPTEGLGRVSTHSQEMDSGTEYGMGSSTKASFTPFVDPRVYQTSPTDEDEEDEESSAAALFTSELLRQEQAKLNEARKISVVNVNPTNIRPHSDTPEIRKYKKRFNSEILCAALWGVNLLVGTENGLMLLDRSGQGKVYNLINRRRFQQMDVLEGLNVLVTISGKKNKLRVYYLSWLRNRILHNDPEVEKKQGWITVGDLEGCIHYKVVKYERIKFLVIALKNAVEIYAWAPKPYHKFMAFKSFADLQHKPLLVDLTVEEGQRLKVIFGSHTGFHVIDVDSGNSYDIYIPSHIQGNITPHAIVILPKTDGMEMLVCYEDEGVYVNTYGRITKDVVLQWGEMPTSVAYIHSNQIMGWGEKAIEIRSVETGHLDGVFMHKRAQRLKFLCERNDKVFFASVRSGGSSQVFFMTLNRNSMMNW
Sequence of CSNK1E (P49674 whole entry): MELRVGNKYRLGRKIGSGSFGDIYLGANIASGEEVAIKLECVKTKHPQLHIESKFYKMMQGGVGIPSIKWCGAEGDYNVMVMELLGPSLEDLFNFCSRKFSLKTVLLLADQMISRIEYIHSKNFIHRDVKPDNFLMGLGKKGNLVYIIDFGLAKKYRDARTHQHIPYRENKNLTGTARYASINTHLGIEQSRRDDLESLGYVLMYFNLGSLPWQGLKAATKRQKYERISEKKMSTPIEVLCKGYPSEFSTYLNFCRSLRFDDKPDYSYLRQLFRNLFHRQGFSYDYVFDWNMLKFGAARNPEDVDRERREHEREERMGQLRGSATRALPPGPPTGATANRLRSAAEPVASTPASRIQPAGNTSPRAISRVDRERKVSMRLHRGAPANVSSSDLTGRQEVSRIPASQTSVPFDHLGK
Sequence of PIM2 (Q9P1W9 whole entry): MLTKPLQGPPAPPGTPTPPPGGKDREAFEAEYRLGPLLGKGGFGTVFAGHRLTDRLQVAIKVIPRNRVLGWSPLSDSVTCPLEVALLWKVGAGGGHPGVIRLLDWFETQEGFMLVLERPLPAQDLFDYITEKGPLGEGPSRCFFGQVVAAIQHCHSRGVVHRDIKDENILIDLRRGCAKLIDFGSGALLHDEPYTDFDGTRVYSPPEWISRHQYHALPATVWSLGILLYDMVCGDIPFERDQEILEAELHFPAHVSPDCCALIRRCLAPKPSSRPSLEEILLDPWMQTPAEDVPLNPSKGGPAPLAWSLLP

CC#CC(=O)N1CCC[C@H]1c1nc(-c2ccc(C(=O)Nc3ccccn3)cc2)c2c(N)nccn12 [Acalabrutinib]
remaining binding at 0.3 µM (BIKE; [3]): 94%
remaining binding at 0.3 µM (CSNK1E; [3]): 89%
remaining binding at 0.3 µM [1, 3]: 99%
remaining binding at 0.3 µM (ERK3; [3]): 91%
remaining binding at 0.3 µM (INSR; [3]): 93%
remaining binding at 0.3 µM (MEK1; [3]): 96%
remaining binding at 0.3 µM (NEK3; [3]): 95%
remaining binding at 0.3 µM (PIP5K2C; [3]): 90%
remaining binding at 0.3 µM [2, 3]: 79%
remaining binding at 0.3 µM (SRMS; [3]): 79%
remaining binding at 0.3 µM (TNIK; [3]): 79%

C=CC(=O)N1CCC[C@@H](n2nc(-c3ccc(Oc4ccccc4)cc3)c3c(N)ncnc32)C1 [Ibrutinib]
remaining binding at 0.3 µM (BIKE; [4]): 66%
remaining binding at 0.3 µM (CDKL2; [4]): 99%
remaining binding at 0.3 µM (CSNK1E; [4]): 79%
remaining binding at 0.3 µM [1, 4]: 12%
remaining binding at 0.3 µM (INSR; [4]): 92%
remaining binding at 0.3 µM (MEK1; [4]): 91%
remaining binding at 0.3 µM (NEK3; [4]): 99%
remaining binding at 0.3 µM (PIM2; [4]): 96%
remaining binding at 0.3 µM (PIP5K2C; [4]): 81%
remaining binding at 0.3 µM [2, 4]: 98%
remaining binding at 0.3 µM (SRMS; [4]): 0.3%
remaining binding at 0.3 µM (TNIK; [4]): 86%

CC#CC(=O)N1CC[C@@H](n2c(=O)n(-c3ccc(Oc4ccccc4)cc3)c3c(N)ncnc32)C1 [Tirabrutinib]
remaining binding at 0.3 µM (BIKE; [5]): 88%
remaining binding at 0.3 µM (CDKL2; [5]): 84%
remaining binding at 0.3 µM (CSNK1E; [5]): 95%
remaining binding at 0.3 µM [1, 5]: 88%
remaining binding at 0.3 µM (ERK3; [5]): 90%
remaining binding at 0.3 µM (INSR; [5]): 72%
remaining binding at 0.3 µM (PIM2; [5]): 99%
remaining binding at 0.3 µM (SRMS; [5]): 82%
remaining binding at 0.3 µM (TNIK; [5]): 92%

C=CC(=O)N1CCC([C@@H]2CCNc3c(C(N)=O)c(-c4ccc(Oc5ccccc5)cc4)nn32)CC1 [Zanubrutinib]
remaining binding at 0.3 µM (CDKL2; [6]): 100%
remaining binding at 0.3 µM (ERK3; [6]): 98%
remaining binding at 0.3 µM (INSR; [6]): 100%
remaining binding at 0.3 µM (MEK1; [6]): 4.1%
remaining binding at 0.3 µM (NEK3; [6]): 100%
remaining binding at 0.3 µM (PIM2; [6]): 96%
remaining binding at 0.3 µM (PIP5K2C; [6]): 92%
remaining binding at 0.3 µM [2, 6]: 74%
remaining binding at 0.3 µM (TNIK; [6]): 85%
